Laboratory results taken from PubChem BioAssay AID1918995 (Molecular Pharmacology Branch, DTP, NCI, 2023).

Tested on: 324938-238-R-J1-PDC complex spheroid growth, % test/control
Assay: Anticancer human tumor 324938-238-R-J1-PDC patient-derived bladder carcinoma cell line growth inhibition [AhR]
Conditions: for IC50: curve of first compound; for viability, T/C: stronger effect = lower value; active = viability on the fitted dose curve at most 10% of control; inactive = the rest
Outline: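 Complex tumor spheroids co-cultured with HUVEC and human MSC stroma; AhR antagonists tested in combination with standard-of-care and investigational agents. Top concentration at or near clinical Cmax (else 10 microM), half-log dilutions; growth expressed as percent test/control.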
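Note: spheroids exposed to agents for seven days before viability read.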

CC1(C)CCC(CN2CCN(c3ccc(C(=O)NS(=O)(=O)c4ccc(NCC5CCOCC5)c([N+](=O)[O-])c4)c(Oc4cnc5[nH]ccc5c4)c3)CC2)=C(c2ccc(Cl)cc2)C1 + CC(CO)NC(=O)c1cc(-c2ccc(Cl)cc2)nn(-c2cnn(C)c2)c1=O
inactive: viability, T/C (second compound 0.1 µM, first compound 0.0316 µM) 102% | viability, T/C (second compound 0.1 µM, first compound 0.1 µM) 101% | viability, T/C (second compound 0.1 µM, first compound 0.316 µM) 91.8% | viability, T/C (second compound 0.1 µM, first compound 1 µM) 77.1% | viability, T/C (second compound 0.1 µM, first compound 3.16 µM) 72.4% | viability, T/C (second compound 0.1 µM, first compound 10 µM) 61.4% | viability, T/C (second compound 0.316 µM, first compound 0.0316 µM) 96.2% | viability, T/C (second compound 0.316 µM, first compound 0.1 µM) 96.7% | viability, T/C (second compound 0.316 µM, first compound 0.316 µM) 89.9% | viability, T/C (second compound 0.316 µM, first compound 1 µM) 82.2% | viability, T/C (second compound 0.316 µM, first compound 3.16 µM) 70.9% | viability, T/C (second compound 0.316 µM, first compound 10 µM) 61.8% | viability, T/C (second compound 1 µM, first compound 0.0316 µM) 80.6% | viability, T/C (second compound 1 µM, first compound 0.1 µM) 87.9% | viability, T/C (second compound 1 µM, first compound 0.316 µM) 92.3% | viability, T/C (second compound 1 µM, first compound 1 µM) 72% | viability, T/C (second compound 1 µM, first compound 3.16 µM) 68.2% | viability, T/C (second compound 1 µM, first compound 10 µM) 62% | viability, T/C (second compound 3.16 µM, first compound 0.0316 µM) 71.8% | viability, T/C (second compound 3.16 µM, first compound 0.1 µM) 77.6% | viability, T/C (second compound 3.16 µM, first compound 0.316 µM) 68.3% | viability, T/C (second compound 3.16 µM, first compound 1 µM) 61.3% | viability, T/C (second compound 3.16 µM, first compound 3.16 µM) 65.5% | viability, T/C (second compound 3.16 µM, first compound 10 µM) 54.4% | viability, T/C (second compound 10 µM, first compound 0.0316 µM) 62.2% | viability, T/C (second compound 10 µM, first compound 0.1 µM) 63.4% | viability, T/C (second compound 10 µM, first compound 0.316 µM) 67.6% | viability, T/C (second compound 10 µM, first compound 1 µM) 59.4% | viability, T/C (second compound 10 µM, first compound 3.16 µM) 61.5% | viability, T/C (second compound 10 µM, first compound 10 µM) 50.6%
> 10 µM: IC50 (second compound 0.1 µM) | IC50 (second compound 0.316 µM) | IC50 (second compound 1 µM) | IC50 (second compound 3.16 µM) | IC50 (second compound 10 µM)

CCN(c1cc(-c2ccc(CN3CCOCC3)cc2)cc(C(=O)NCc2c(C)cc(C)[nH]c2=O)c1C)C1CCOCC1 + CC(CO)NC(=O)c1cc(-c2ccc(Cl)cc2)nn(-c2cnn(C)c2)c1=O
inactive: viability, T/C (second compound 0.1 µM, first compound 0.00949 µM) 105% | viability, T/C (second compound 0.1 µM, first compound 0.03 µM) 114% | viability, T/C (second compound 0.1 µM, first compound 0.0949 µM) 107% | viability, T/C (second compound 0.1 µM, first compound 0.3 µM) 101% | viability, T/C (second compound 0.1 µM, first compound 0.949 µM) 95% | viability, T/C (second compound 0.1 µM, first compound 3 µM) 101% | viability, T/C (second compound 0.316 µM, first compound 0.00949 µM) 102% | viability, T/C (second compound 0.316 µM, first compound 0.03 µM) 96.3% | viability, T/C (second compound 0.316 µM, first compound 0.0949 µM) 92.8% | viability, T/C (second compound 0.316 µM, first compound 0.3 µM) 94.8% | viability, T/C (second compound 0.316 µM, first compound 0.949 µM) 96.6% | viability, T/C (second compound 0.316 µM, first compound 3 µM) 93.2% | viability, T/C (second compound 1 µM, first compound 0.00949 µM) 88% | viability, T/C (second compound 1 µM, first compound 0.03 µM) 92.4% | viability, T/C (second compound 1 µM, first compound 0.0949 µM) 89.2% | viability, T/C (second compound 1 µM, first compound 0.3 µM) 98.3% | viability, T/C (second compound 1 µM, first compound 0.949 µM) 90.2% | viability, T/C (second compound 1 µM, first compound 3 µM) 88.9% | viability, T/C (second compound 3.16 µM, first compound 0.00949 µM) 79.3% | viability, T/C (second compound 3.16 µM, first compound 0.03 µM) 80.6% | viability, T/C (second compound 3.16 µM, first compound 0.0949 µM) 76.7% | viability, T/C (second compound 3.16 µM, first compound 0.3 µM) 72.5% | viability, T/C (second compound 3.16 µM, first compound 0.949 µM) 77.3% | viability, T/C (second compound 3.16 µM, first compound 3 µM) 77.6% | viability, T/C (second compound 10 µM, first compound 0.00949 µM) 70.4% | viability, T/C (second compound 10 µM, first compound 0.03 µM) 69% | viability, T/C (second compound 10 µM, first compound 0.0949 µM) 67.5% | viability, T/C (second compound 10 µM, first compound 0.3 µM) 77.3% | viability, T/C (second compound 10 µM, first compound 0.949 µM) 66.3% | viability, T/C (second compound 10 µM, first compound 3 µM) 74.1%
> 3 µM: IC50 (second compound 0.1 µM) | IC50 (second compound 0.316 µM) | IC50 (second compound 1 µM) | IC50 (second compound 3.16 µM) | IC50 (second compound 10 µM)
